In brackets after ≈: the same amount, converted by molar mass. Read-outs that look alike come from different tables or passages of the source. Bridge positions count the residues as written; N and C are the ends. Square brackets hold non-standard residues; d marks the D form. Peptide text beside a SMILES is read from it. * marks the point of attachment. Heptanoyl(6-Me) = CC(C)CCCCC(=O)*; dOrn = NCCC[C@@H](N)C(=O)O; Nonanoyl = CCCCCCCCC(=O)*; X1 = CC[C@H](C)CCCCC(=O)*; Heptanoyl = CCCCCCC(=O)*; Octanoyl = CCCCCCCC(=O)*; Orn = NCCC[C@H](N)C(=O)O; dDap = NC[C@@H](N)C(=O)O; Dab = NCC[C@H](N)C(=O)O; Dap = NC[C@H](N)C(=O)O
Columns and labels:
Format in all cases: cell-based
[1] = Nephrotoxicity assay: in vitro cytotoxicity of HK-2 cells by CCK-8 assay; settings: human, HK-2 cells (human renal), 72 h incubation with drug-containing medium
Procedure, shortened: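 HK-2 human renal cells in RPMI-1640 with 10% FBS were exposed to compounds at final 12.5–500 µg/mL for 72 h, then CCK-8 for 3 h and OD450 read. Viability was normalised to drug-free wells; IC50 came from logarithmic regression over three repeats, with polymyxin B as positive drug.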

[2] = test system: Klebsiella pneumoniae ATCC BAA-1705 (KPC)
Procedure, shortened: (§1)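 Broth microdilution per CLSI in Mueller-Hinton broth. Compounds were tested at final concentrations of 64 to 0.03 mg/L (two-fold steps) against an inoculum of (2-4) × 10^5 CFU/mL, with incubation at 35-37°C for 16-20 h to give the MIC.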

[3] = test system: Klebsiella pneumoniae KPN+19-15
Procedure, shortened: as §1

[4] = test system: Pseudomonas aeruginosa PAE19-3
Procedure, shortened: as §1

[5] = test system: Escherichia coli ATCC BAA-2340 (KPC)
Procedure, shortened: as §1

[6] = test system: Acinetobacter baumannii ABA19-1
Procedure, shortened: as §1

[7] = test system: Pseudomonas aeruginosa ATCC 27853
Procedure, shortened: as §1

[8] = test system: Acinetobacter baumannii NCTC 13304 (OXA-27)
Procedure, shortened: as §1

[9] = test system: Escherichia coli ATCC BAA-2523
Procedure, shortened: as §1

Structure (SMILES) | IC50 at 72 h [1] | MIC ([2]; ATCC BAA-1705) | MIC ([3]; KPN+19-15) | MIC ([4]; PAE19-3) | MIC ([5]; ATCC BAA-2340) | MIC ([6]; ABA19-1) | MIC ([7]; ATCC 27853) | MIC ([8]; NCTC 13304) | MIC ([9]; ATCC BAA-2523) | MIC ([2]; Klebsiella pneumoniae ATCC BAA-1705 (KPC)) | MIC ([3]; Klebsiella pneumoniae KPN 19-15) | MIC ([4]; Pseudomonas aeruginosa PAE19-3) | MIC ([5]; Escherichia coli ATCC BAA-2340 (KPC)) | MIC ([6]; Acinetobacter baumannii ABA19-1) | MIC ([7]; Pseudomonas aeruginosa ATCC27853) | MIC ([8]; Acinetobacter baumannii NCTC 13304 (OXA-27)) | MIC ([9]; Escherichia coli ATCC BAA-2523)
CCCCCCC(=O)N[C@@H](CCN)C(=O)N[C@H](C(=O)N[C@H](CO)C(=O)N[C@H]1CCNC(=O)[C@H]([C@@H](C)O)NC(=O)[C@H](CN)NC(=O)[C@H](CCN)NC(=O)[C@H]([C@@H](C)O)NC(=O)[C@@H](Cc2ccccc2)NC(=O)[C@H](CCN)NC1=O)[C@@H](C)O [Compound 84, Heptanoyl-Dab-Thr-D-Ser-ring(4-10)[Dab-Dab-D-Phe-Thr-Dab-Dap-Thr]] (Heptanoyl-[Dab]T[dS][Dab][Dab][dF]T[Dab][Dap]T; lactam 4-C) | > 500 µg/mL | 0.25 µg/mL (≈ 0.22 µM) | 0.5 µg/mL (≈ 0.44 µM) | 64 µg/mL (≈ 56.3 µM) | 0.25 µg/mL (≈ 0.22 µM) | 0.06 µg/mL (≈ 0.0528 µM) | >64 µg/mL | 0.03 µg/mL (≈ 0.0264 µM) | 0.25 µg/mL (≈ 0.22 µM) |  |  |  |  |  |  |  | 
CC[C@H](C)CCCCC(=O)N[C@@H](CCN)C(=O)N[C@H](C(=O)N[C@H](CO)C(=O)N[C@H]1CCNC(=O)[C@H]([C@@H](C)O)NC(=O)[C@H](CCN)NC(=O)[C@H](CCN)NC(=O)[C@H]([C@@H](C)O)NC(=O)[C@@H](Cc2ccccc2)NC(=O)[C@H](CN)NC1=O)[C@@H](C)O [Compound 61, (S)-6-methyloctanoyl-Dab-Thr-D-Ser-ring(4-10)[Dab-Dap-D-Phe-Thr-Dab-Dab-Thr]] (X1-[Dab]T[dS][Dab][Dap][dF]T[Dab][Dab]T; lactam 4-C) | > 500 µg/mL |  |  |  |  |  |  |  |  | 0.25 µg/mL (≈ 0.215 µM) | 0.5 µg/mL (≈ 0.429 µM) | 4 µg/mL (≈ 3.44 µM) | 0.06 µg/mL (≈ 0.0515 µM) | 0.25 µg/mL (≈ 0.215 µM) | 64 µg/mL (≈ 55 µM) | 0.25 µg/mL (≈ 0.215 µM) | 0.06 µg/mL (≈ 0.0515 µM)
CCCCCCCC(=O)N[C@@H](CCN)C(=O)N[C@H](C(=O)N[C@H](CN)C(=O)N[C@H]1CCNC(=O)[C@H]([C@@H](C)O)NC(=O)[C@H](CCN)NC(=O)[C@H](CCN)NC(=O)[C@H]([C@@H](C)O)NC(=O)[C@@H](Cc2ccccc2)NC(=O)[C@H](CCN)NC1=O)[C@@H](C)O [Compound 3, Octanoyl-Dab-Thr-D-Dap-ring(4-10)[Dab-Dab-D-Phe-Thr-Dab-Dab-Thr]] (Octanoyl-[Dab]T[dDap][Dab][Dab][dF]T[Dab][Dab]T; lactam 4-C) | > 500 µg/mL | ≤0.03 µg/mL | ≤0.03 µg/mL | 0.25 µg/mL (≈ 0.215 µM) | ≤0.03 µg/mL | ≤0.03 µg/mL | 0.03 µg/mL (≈ 0.0258 µM) | ≤0.03 µg/mL | ≤0.03 µg/mL |  |  |  |  |  |  |  | 
CC(C)CCCCC(=O)N[C@@H](CCN)C(=O)N[C@H](C(=O)N[C@H](CCCN)C(=O)N[C@H]1CCNC(=O)[C@H]([C@@H](C)O)NC(=O)[C@H](CCN)NC(=O)[C@H](CCN)NC(=O)[C@H]([C@@H](C)O)NC(=O)[C@@H](Cc2ccccc2)NC(=O)[C@H](CCN)NC1=O)[C@@H](C)O [Compound 22, 6-methylheptanoyl-Dab-Thr-D-Orn-ring(4-10)[Dab-Dab-D-Phe-Thr-Dab-Dab-Thr]] ({Heptanoyl(6-Me)}-[Dab]T[dOrn][Dab][Dab][dF]T[Dab][Dab]T; lactam 4-C) | > 500 µg/mL | 0.06 µg/mL (≈ 0.0504 µM) | 0.125 µg/mL (≈ 0.105 µM) | 1 µg/mL (≈ 0.839 µM) | ≤0.03 µg/mL | 0.125 µg/mL (≈ 0.105 µM) | 0.25 µg/mL (≈ 0.21 µM) | 0.06 µg/mL (≈ 0.0504 µM) | ≤0.03 µg/mL |  |  |  |  |  |  |  | 
CCCCCCCCC(=O)N[C@@H](CCN)C(=O)N[C@H](C(=O)N[C@H](CO)C(=O)N[C@H]1CCNC(=O)[C@H]([C@@H](C)O)NC(=O)[C@H](CCN)NC(=O)[C@H](CCN)NC(=O)[C@H]([C@@H](C)O)NC(=O)[C@@H](Cc2ccccc2)NC(=O)[C@H](CCCN)NC1=O)[C@@H](C)O [Compound 70, Nonanoyl-Dab-Thr-D-Ser-ring(4-10)[Dab-Orn-D-Phe-Thr-Dab-Dab-Thr]] (Nonanoyl-[Dab]T[dS][Dab][Orn][dF]T[Dab][Dab]T; lactam 4-C) | 384 ± 29.5 µg/mL (≈ 322 µM) | 0.25 µg/mL (≈ 0.21 µM) | 0.5 µg/mL (≈ 0.419 µM) | 8 µg/mL (≈ 6.71 µM) | 0.5 µg/mL (≈ 0.419 µM) | 0.25 µg/mL (≈ 0.21 µM) | 64 µg/mL (≈ 53.7 µM) | 0.25 µg/mL (≈ 0.21 µM) | 0.5 µg/mL (≈ 0.419 µM) |  |  |  |  |  |  |  | 

— EP4725957A1, “GROUP OF CYCLIC ALKALINE LIPOPEPTIDE COMPOUNDS, AND PREPARATION METHOD THEREFOR AND USE THEREOF” (Institute of Medicinal Biotechnology, Chinese Academy of …, priority 2023, dated 2024)
